In patent publication US20230027026A1, “FUSED PYRIMIDINE COMPOUNDS, COMPOSITIONS AND MEDICINAL APPLICATIONS THEREOF” (JUBILANT BIOSYS LIMITED, priority 2019, published 2023) one finds GI50, IC50 and EC50 data, which are given here for eight compounds.

In assay [1] the target is EGFR (A767_dupASV) expressing Ba/F3 stable cell line (Homo sapiens, UniProt P00533, DUP767-769, cells depend on it). Put plainly: Cellular proliferation (Alamar Blue) assay, EGFR A767_dupASV Ba/F3. In kind it is cell-based. Particulars: EGFR A767_dupASV Ba/F3, 72 hr, read-out: A767 IC50. The method, boiled down:
(§1)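 Following a 16–18 h pre-incubation, cells received compound or DMSO for 72 h at 37 °C across a 10–0.0005 μM final range. Proliferation was then scored by Alamar Blue fluorescence (540 nm excitation, 590 nm emission) after 3 h.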

Assay [2] deals with HER2 (A775_G776insYVMA) expressing Ba/F3 stable cell line (Homo sapiens, UniProt P04626, DUP772-775, cells depend on it). Kind of assay: Cellular proliferation (Alamar Blue) assay, HER2 YVMA Ba/F3. In kind it is cell-based. Particulars: HER2 A775_G776insYVMA Ba/F3, 72 hr, read-out: YVMA IC50. In a few lines: as §1
Sequence of HER2 (A775_G776insYVMA) expressing Ba/F3 stable cell line (P04626 with tags, fused parts or gaps DUP772-775): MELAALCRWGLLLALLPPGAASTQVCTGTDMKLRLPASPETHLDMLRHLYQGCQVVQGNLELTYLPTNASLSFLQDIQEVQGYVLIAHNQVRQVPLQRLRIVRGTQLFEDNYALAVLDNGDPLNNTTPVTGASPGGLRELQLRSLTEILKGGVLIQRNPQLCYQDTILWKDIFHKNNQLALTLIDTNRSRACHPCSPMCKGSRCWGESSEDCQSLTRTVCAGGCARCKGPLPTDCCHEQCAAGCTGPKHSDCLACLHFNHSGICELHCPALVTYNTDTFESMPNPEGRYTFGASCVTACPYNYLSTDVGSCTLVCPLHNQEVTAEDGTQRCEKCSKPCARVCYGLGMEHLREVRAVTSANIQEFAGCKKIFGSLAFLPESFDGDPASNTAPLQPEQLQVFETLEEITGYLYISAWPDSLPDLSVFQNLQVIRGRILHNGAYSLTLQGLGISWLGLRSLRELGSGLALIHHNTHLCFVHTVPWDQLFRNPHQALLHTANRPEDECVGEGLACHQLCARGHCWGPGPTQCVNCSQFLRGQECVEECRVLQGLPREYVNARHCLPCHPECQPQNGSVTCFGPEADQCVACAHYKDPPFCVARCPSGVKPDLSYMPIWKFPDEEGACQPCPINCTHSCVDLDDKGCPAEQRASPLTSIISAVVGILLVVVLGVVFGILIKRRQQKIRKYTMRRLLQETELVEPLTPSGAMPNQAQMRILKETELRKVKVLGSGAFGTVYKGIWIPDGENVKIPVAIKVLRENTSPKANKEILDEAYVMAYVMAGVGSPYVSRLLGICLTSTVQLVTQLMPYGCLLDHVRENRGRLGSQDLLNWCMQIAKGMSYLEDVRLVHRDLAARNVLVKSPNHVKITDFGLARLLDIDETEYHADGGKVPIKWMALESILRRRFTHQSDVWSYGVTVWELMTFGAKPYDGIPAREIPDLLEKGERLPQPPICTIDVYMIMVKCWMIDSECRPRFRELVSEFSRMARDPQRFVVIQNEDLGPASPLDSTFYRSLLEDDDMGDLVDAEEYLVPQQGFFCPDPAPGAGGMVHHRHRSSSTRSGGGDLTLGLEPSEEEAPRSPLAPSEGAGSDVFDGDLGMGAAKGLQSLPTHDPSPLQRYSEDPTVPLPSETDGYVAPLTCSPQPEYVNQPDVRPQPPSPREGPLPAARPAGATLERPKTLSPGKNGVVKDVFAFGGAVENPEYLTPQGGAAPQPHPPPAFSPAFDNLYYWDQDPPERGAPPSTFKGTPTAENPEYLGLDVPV
On the technique in general: Resazurin is reduced to fluorescent resorufin, in cell work by metabolically active cells.

A further assay has as its system BT-474 cells. Kind of assay: Cellular proliferation (Alamar Blue) assay, BT-474. In kind it is cell-based. The conditions noted are these: Homo sapiens. The method, then: (§2) Example 3: Cellular Proliferation (Alamar Blue) Assays
(§3) • 1. EGFR(D770_N771insSVD) expressing Ba/F3 stable cell line • 2. EGFR (A767_dupASV) expressing Ba/F3 stable cell line • 3. A431 cells • 4. BTER2 (A775_G776insYVMA) expressing Ba/F3 stable cell line • 5. BTER2 (WT) expressing Ba/F3 stable cell line • 6. BT-474 cells
(§4) • 1. Seed cells at 5000 for A431 and 15,000 cells for Ba/F3 in 100 μL/well in complete media (for A431: DMEM with 10% FBS and for Ba/F3 cells: RPMI with 10% FBS) in 96-well tissue culture plate. Leave outer wells without cells for background measurements. Incubate at 37 degree Celsius in 5% CO2 humidified incubator for 16-18 hours. • 2. Add 0.025 ml of 5× concentration compound dilution or DMSO control. Final compound concentration range is 10-0.0005 μM prepared in 3-fold serial dilutions. Incubate for 72 hr at 37 degree Celsius in […] humidified incubator. • 3. Add 0.0125 mL Alamar Blue™ reagent to each well with multi-channel pipette and tap gently on each side of the plate to mix. Incubate for 3 hours at 37 degree Celsius in […] humidified incubator. • 4. Read plates on fluorescence reader (Tecan Spark Control, Device: Spark, Serial #: 1801006040) at 540 nm excitation, 590 nm emission wavelength. • 5. Data analysis was performed using XLfit 5.5.0.5.

The next assay has as its target T1, EGFR (T790M/L858R) (Homo sapiens, UniProt P00533, L858R/T790M).
T1 construct: GST; purchased Proqinase
Put plainly: EGFR L858R/T790M enzyme inhibition assay (HTRF). The conditions noted are these: 5 μM ATP, 60 min, read-out: EGFR_L858R T790M_IC50_nM. In kind it is biochemical. In a few lines:
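HTRF kinase assay with 2.5 nM GST-EGFR T790M/L858R, 0.5 μM biotinylated gastrin peptide and 5 μM ATP in HEPES pH 7.4 with Mg/Mn, 60 min at room temperature; compounds from 10 μM top. Phosphotyrosine detected by Eu anti-pTyr/SA-APC; IC50 from % inhibition.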
A general note: TR-FRET usually uses a lanthanide donor and a delayed reading to cut background.

The target in assay [3] is HER2 (WT) expressing Ba/F3 stable cell line (Homo sapiens, UniProt P04626). Put plainly: Cellular proliferation (Alamar Blue) assay, HER2 WT Ba/F3. In kind it is cell-based. Particulars: HER2 WT Ba/F3, 72 hr, read-out: HER2 WT Ba/F3 IC50. The method, then:
as §2, §3, §4

For assay [4], the target named is EGFR(D770_N771insSVD) expressing Ba/F3 stable cell line (Homo sapiens, UniProt P00533, DUP768-770, cells depend on it). Put plainly: Cellular proliferation (Alamar Blue) assay, EGFR D770_N771insSVD Ba/F3. In kind it is cell-based. The conditions noted are these: EGFR D770_N771insSVD Ba/F3, 72 hr, read-out: D770 IC50. In a few lines: as §1
Sequence of EGFR(D770_N771insSVD) expressing Ba/F3 stable cell line (P00533 with tags, fused parts or gaps DUP768-770): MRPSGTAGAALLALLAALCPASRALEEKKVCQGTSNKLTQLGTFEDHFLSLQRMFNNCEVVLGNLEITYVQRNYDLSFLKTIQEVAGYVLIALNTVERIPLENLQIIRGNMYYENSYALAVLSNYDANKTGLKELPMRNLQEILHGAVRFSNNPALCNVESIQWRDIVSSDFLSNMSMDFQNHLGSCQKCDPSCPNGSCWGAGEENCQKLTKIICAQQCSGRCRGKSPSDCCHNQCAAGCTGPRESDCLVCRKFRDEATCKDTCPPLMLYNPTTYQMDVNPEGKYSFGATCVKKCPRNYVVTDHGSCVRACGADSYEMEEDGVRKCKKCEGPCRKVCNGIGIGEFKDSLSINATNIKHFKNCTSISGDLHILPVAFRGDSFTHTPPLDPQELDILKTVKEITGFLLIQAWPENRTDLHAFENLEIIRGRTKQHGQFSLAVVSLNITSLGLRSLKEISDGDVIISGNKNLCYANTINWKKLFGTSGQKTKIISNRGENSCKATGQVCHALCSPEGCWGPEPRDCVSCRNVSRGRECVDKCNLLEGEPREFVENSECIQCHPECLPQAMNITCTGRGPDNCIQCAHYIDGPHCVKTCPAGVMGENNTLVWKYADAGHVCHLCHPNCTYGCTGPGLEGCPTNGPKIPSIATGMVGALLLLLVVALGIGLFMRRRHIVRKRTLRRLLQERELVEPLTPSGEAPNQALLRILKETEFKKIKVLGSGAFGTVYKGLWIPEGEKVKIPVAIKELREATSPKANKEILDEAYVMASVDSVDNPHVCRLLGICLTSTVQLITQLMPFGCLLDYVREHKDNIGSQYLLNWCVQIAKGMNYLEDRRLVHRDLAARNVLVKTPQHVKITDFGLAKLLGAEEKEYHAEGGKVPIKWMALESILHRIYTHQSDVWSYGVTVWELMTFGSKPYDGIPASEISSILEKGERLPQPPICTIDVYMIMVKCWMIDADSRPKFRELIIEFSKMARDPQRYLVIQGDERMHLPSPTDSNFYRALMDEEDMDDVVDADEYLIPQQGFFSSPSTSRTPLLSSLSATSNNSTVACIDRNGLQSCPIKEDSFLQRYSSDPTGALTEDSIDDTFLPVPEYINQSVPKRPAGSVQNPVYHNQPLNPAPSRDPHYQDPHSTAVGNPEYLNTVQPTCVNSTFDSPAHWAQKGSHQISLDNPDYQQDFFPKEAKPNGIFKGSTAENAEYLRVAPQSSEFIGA
The test system of the next assay is A431 cells. Put plainly: Cellular proliferation (Alamar Blue) assay, A431. The format is cell-based. The conditions noted are these: Homo sapiens, A-431; A431 cells, 72 hr, Alamar Blue; read-out: A431 IC50. In a few lines:
as §1

Assay [5] has as its system H1975 cells (L858R_T790M mutant). Kind of assay: H1975 proliferation assay. The format is cell-based. Particulars: Homo sapiens, NCI-H1975; read-out: Proliferation_Assay H1975 cells-EC50_nM L858R_T790M_mutant.

Sequence of EGFR (A767_dupASV) expressing Ba/F3 stable cell line (P00533 with tags, fused parts or gaps DUP767-769): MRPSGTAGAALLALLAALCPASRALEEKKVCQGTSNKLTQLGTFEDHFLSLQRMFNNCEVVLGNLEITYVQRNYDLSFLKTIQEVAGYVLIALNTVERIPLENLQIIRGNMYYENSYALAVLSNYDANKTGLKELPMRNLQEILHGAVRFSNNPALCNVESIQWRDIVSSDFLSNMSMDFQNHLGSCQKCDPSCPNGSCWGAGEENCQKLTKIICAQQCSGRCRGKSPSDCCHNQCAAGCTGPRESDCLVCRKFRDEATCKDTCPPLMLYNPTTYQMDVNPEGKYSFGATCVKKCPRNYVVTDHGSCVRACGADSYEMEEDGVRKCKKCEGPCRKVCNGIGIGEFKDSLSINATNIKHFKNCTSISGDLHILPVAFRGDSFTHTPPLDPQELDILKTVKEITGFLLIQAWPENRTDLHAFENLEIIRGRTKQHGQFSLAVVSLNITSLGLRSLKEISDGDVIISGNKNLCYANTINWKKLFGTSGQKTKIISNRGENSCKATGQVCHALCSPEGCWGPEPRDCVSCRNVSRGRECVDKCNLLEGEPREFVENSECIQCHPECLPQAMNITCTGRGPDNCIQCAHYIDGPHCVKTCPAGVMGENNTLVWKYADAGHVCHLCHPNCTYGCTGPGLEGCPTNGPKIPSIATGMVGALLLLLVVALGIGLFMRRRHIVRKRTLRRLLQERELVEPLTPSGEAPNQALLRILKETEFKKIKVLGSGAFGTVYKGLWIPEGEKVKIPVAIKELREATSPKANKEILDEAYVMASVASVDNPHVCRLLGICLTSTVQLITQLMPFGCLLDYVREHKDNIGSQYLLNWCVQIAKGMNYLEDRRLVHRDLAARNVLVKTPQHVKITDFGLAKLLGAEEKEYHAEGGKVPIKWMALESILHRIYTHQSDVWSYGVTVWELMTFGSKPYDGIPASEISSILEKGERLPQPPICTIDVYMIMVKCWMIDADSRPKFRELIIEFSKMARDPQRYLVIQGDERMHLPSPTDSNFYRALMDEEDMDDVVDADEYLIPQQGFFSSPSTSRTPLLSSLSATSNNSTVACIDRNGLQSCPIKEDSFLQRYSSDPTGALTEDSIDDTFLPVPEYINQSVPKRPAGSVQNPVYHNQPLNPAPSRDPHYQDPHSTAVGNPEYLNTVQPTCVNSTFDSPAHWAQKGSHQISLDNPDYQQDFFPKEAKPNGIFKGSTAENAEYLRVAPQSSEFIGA
T1 sequence (P00533 25-1210 T790M/L858R): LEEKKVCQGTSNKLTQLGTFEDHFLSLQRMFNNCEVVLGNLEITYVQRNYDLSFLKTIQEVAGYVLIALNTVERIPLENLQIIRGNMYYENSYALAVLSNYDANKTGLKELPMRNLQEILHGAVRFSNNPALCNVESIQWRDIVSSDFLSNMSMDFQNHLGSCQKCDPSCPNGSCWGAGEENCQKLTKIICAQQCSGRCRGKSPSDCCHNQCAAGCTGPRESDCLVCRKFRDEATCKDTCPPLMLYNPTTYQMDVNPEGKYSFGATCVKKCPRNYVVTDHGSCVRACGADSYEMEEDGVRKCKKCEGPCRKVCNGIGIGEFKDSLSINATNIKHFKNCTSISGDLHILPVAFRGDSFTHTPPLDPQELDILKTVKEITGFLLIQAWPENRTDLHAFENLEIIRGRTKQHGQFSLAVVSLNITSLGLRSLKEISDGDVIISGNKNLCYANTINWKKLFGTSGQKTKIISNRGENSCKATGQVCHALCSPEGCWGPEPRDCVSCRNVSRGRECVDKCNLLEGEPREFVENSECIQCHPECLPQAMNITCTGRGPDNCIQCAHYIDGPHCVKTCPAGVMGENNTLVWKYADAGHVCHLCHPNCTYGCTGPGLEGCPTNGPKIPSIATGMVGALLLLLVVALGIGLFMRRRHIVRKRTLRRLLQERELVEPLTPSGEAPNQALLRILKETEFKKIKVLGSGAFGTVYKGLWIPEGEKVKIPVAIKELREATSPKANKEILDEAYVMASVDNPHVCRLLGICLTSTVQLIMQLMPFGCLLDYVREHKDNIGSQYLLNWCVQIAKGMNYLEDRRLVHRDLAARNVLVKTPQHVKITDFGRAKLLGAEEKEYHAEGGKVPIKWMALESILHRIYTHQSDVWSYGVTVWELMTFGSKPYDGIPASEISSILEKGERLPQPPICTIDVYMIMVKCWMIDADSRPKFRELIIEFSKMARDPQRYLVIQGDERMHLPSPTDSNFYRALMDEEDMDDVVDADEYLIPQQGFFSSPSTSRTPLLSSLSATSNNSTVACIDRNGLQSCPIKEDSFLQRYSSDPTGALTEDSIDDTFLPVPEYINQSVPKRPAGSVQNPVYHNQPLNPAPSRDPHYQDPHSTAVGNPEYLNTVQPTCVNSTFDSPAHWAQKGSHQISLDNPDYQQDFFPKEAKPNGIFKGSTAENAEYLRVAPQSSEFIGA

In the case of `C=CC(=O)Nc1cccc(N2C(=O)N(Cc3ccccc3)Cc3cnc(Nc4cnn(C)c4)nc32)c1` [Compound 1, N-(3-(3-benzyl-7-((1-methyl-1H-pyrazol-4-yl)amino)-2-oxo-3,4-dihydropyrimido[4,5-d]pyrimidin-1(2H)-yl)phenyl)acrylamide], the GI50 is 14 nM in assay [1], 9.9 nM in assay [2], less than 0.5 nM in assay [3] and 4 nM in assay [4]. In addition, the IC50 in the assay with BT-474 cells was found to be 7.7 nM; on EGFR (T790M/L858R) it was 0.4 nM; with A431 cells, 65 nM. Moreover, in assay [5], the EC50 was 6.8 nM.
For `C=CC(=O)Nc1cccc(N2C(=O)N(Cc3ccccc3)Cc3cnc(Nc4cn(CC(F)(F)F)nc4C)nc32)c1` [Compound 6, N-(3-(3-benzyl-7-((3-methyl-1-(2,2,2-trifluoroethyl)-1H-pyrazol-4-yl)amino)-2-oxo-3,4-dihydropyrimido[4,5-d]pyrimidin-1(2H)-yl)phenyl)acrylamide], the GI50 in assay [1] was determined as 9 nM; in assay [2], 11 nM; in assay [4], 9 nM. Besides, the values for the IC50 on EGFR (T790M/L858R) and in the assay on A431 cells were 1 nM and 1890 nM, respectively. Further, in assay [5], the EC50 stood at 8.1 nM.
`CC(C)n1cc(Nc2ncc3c(n2)N(c2cccc(NC(=O)/C=C/CN(C)C)c2)C(=O)N(Cc2ccccc2)C3)cn1` [Compound 9, (E)-N-(3-(3-benzyl-7-((1-isopropyl-1H-pyrazol-4-yl)amino)-2-oxo-3,4-dihydropyrimido[4,5-d]pyrimidin-1(2H)-yl)phenyl)-4-(dimethylamino)but-2-enamide]: the figures for the GI50 in assay [1], in assay [2] and in assay [4] were 103 nM, 38 nM and 114 nM, respectively. Moreover, the IC50 at EGFR (T790M/L858R) was determined as 4 nM; in the assay with A431 cells, 6870 nM. In addition, the EC50 in assay [5] came to 17.6 nM.
Consider `C=CC(=O)Nc1cccc(N2C(=O)N(Cc3ccccc3)Cc3cnc(Nc4cnn(CCOC)c4)nc32)c1` [Compound 15, N-(3-(3-benzyl-7-((1-(2-methoxyethyl)-1H-pyrazol-4-yl)amino)-2-oxo-3,4-dihydropyrimido[4,5-d]pyrimidin-1(2H)-yl)phenyl)acrylamide], for which the GI50 in assay [1] amounted to 10 nM; in assay [2], 23 nM; in assay [4], 6 nM. In addition, the IC50 at EGFR (T790M/L858R) was 2 nM; in the assay on A431 cells, 77 nM. Besides, in assay [5], the EC50 is 1.8 nM.
Consider `CN(C)C/C=C/C(=O)Nc1cccc(N2C(=O)N(Cc3ccccc3)Cc3cnc(Nc4cn(C)nc4Cl)nc32)c1` [Compound 20, (E)-N-(3-(3-benzyl-7-((3-chloro-1-methyl-1H-pyrazol-4-yl)amino)-2-oxo-3,4-dihydropyrimido[4,5-d]pyrimidin-1(2H)-yl)phenyl)-4-(dimethylamino)but-2-enamide], for which the GI50 in assay [1] came out at 34 nM; in assay [2], 14.9 nM; in assay [3], 0.7 nM; in assay [4], 35 nM. Also, the IC50 in the assay on BT-474 cells stood at 4.1 nM; on EGFR (T790M/L858R), 1 nM; in the assay with A431 cells it was 595 nM. In assay [5], the EC50 stood at 2 nM.
For the compound `CN(C)C/C=C/C(=O)Nc1cccc(N2C(=O)N(c3ccccc3)Cc3cnc(Nc4cn(C)nc4Cl)nc32)c1` [Compound 35, (E)-N-(3-(7-((3-chloro-1-methyl-1H-pyrazol-4-yl)amino)-2-oxo-3-phenyl-3,4-dihydropyrimido[4,5-d]pyrimidin-1(2H)-yl)phenyl)-4-(dimethylamino)but-2-enamide], the GI50 was determined as 12 nM in assay [1], 154 nM in assay [2] and 55 nM in assay [4]. Moreover, the figures for the IC50 on EGFR (T790M/L858R) and with A431 cells were 7.8 nM and 2170 nM, respectively. For the same compound, the EC50 in assay [5] is 79 nM.
For the compound `C=CC(=O)Nc1cccc(N2C(=O)N(Cc3ccccc3)Cc3cnc(Nc4ccc(N5CCOCC5)nc4)nc32)c1` [Compound 46, N-(3-(3-benzyl-7-((6-morpholinopyridin-3-yl)amino)-2-oxo-3,4-dihydropyrimido[4,5-d]pyrimidin-1(2H)-yl)phenyl)acrylamide], the GI50 in assay [1] came to 14 nM; in assay [2], 67 nM; in assay [4] it was 16 nM. Also, the IC50 on EGFR (T790M/L858R) was 2.6 nM; in the assay on A431 cells, 1700 nM. The EC50 in assay [5] is 3.7 nM.
As for `CN(C)C/C=C/C(=O)Nc1cccc(N2C(=O)N(Cc3ccccc3)Cc3cnc(Nc4cnn(C)c4)nc32)c1` [Compound 49, (E)-N-(3-(3-benzyl-7-((1-methyl-1H-pyrazol-4-yl)amino)-2-oxo-3,4-dihydropyrimido[4,5-d]pyrimidin-1(2H)-yl)phenyl)-4-(dimethylamino)but-2-enamide], the GI50 in assay [1] is 351 nM; in assay [2], 178 nM; in assay [4], 476 nM. For the same compound, the IC50 at EGFR (T790M/L858R) was 0.6 nM; with A431 cells, no less than 10000 nM. Moreover, the EC50 in assay [5] is 2.1 nM.
